Source: patent US20250333406A1, “SULFONYL CYCLIC DERIVATIVES, AND COMPOSITIONS AND METHODS THEREOF” (Lysoway Therapeutics, Inc., priority 2023, published 2025)

Tested on: TFEB
Assay: TFEB Nuclear Translocation Assay
Type: cell-based
Conditions: read-out: EC50 of TFEB activation

Row | EC50 [nM] | SMILES
1 | ≤ 1000 | CC(C)S(=O)(=O)c1ccc(S(=O)(=O)n2nc(N3CCN(c4ncc(F)cc4F)CC34CC4)c3c(Cl)cc(F)cc32)cc1 [Compound 27, 4-chloro-3-[7-(3,5-difluoro-2-pyridyl)-4,7-diazaspiro [2.5]octan-4-yl]-6-fluoro-1-(4-isopropylsulfonylphenyl)sulfonyl-indazole]
2 | ≤ 1000 | CC(C)S(=O)(=O)c1ccc(S(=O)(=O)n2nc(N3CCN(c4ncc(F)cc4F)CC34CC4)c3c(F)cc(F)cc32)cc1 [Compound 28, 3-[7-(3,5-difluoro-2-pyridyl)-4,7-diazaspiro[2.5]octan-4-yl]-4,6-difluoro-1-(4-isopropylsulfonylphenyl)sulfonyl-indazole]
3 | ≤ 1000 | O=S(=O)(c1ccc(S(=O)(=O)n2nc(N3CCN(c4ncc(F)cn4)CC34CC4)c3c(Cl)cccc32)cc1)C1CC1 [Compound 29, 4-chloro-1-((4-(cyclopropylsulfonyl)phenyl)sulfonyl)-3-(7-(5-fluoropyrimidin-2-yl)-4,7-diazaspiro [2.5]octan-4-yl)-1H-indazole]
4 | ≤ 1000 | CC(C)S(=O)(=O)c1ccc(S(=O)(=O)n2nc(N3CCN(c4ncc(Cl)cc4F)CC34CC4)c3c(Cl)cccc32)s1 [Compound 30, 4-chloro-3-[7-(5-chloro-3-fluoro-2-pyridyl)-4,7-diazaspiro [2.5]octan-4-yl]-1-[(5-isopropylsulfonyl-2-thienyl)sulfonyl]indazole]
5 | ≤ 1000 | CC(C)S(=O)(=O)c1ccc(S(=O)(=O)n2nc(N3CCN(c4ncc(F)cc4F)CC34CC4)c3c(Cl)ccc(F)c32)s1 [Compound 31, 4-chloro-3-(7-(3,5-difluoropyridin-2-yl)-4,7-diazaspiro [2.5]octan-4-yl)-7-fluoro-1-((5-(isopropylsulfonyl)thiophen-2-yl)sulfonyl)-1H-indazole]
6 | ≤ 1000 | CC(C)S(=O)(=O)c1ccc(S(=O)(=O)n2nc(N3CCN(c4ncc(F)cc4F)CC34CC4)c3c(F)ccc(F)c32)s1 [Compound 32, 3-[7-(3,5-difluoro-2-pyridyl)-4,7-diazaspiro [2.5]octan-4-yl]-4,7-difluoro-1-[(5-isopropylsulfonyl-2-thienyl)sulfonyl]indazole]
7 | ≤ 1000 | CC(C)S(=O)(=O)c1ccc(S(=O)(=O)n2nc(N3CCN(c4ncc(Cl)cc4F)CC34CC4)c3c(F)ccc(F)c32)s1 [Compound 33, 3-[7-(5-chloro-3-fluoro-2-pyridyl)-4,7-diazaspiro [2.5]octan-4-yl]-4,7-difluoro-1-[(5-isopropylsulfonyl-2-thienyl)sulfonyl]indazole]
8 | ≤ 1000 | CC(C)S(=O)(=O)c1ccc(S(=O)(=O)n2nc(N3CCN(c4ncc(F)cn4)CC34CC4)c3c(F)ccc(F)c32)s1 [Compound 34, 4,7-difluoro-3-(7-(5-fluoropyrimidin-2-yl)-4,7-diazaspiro [2.5]octan-4-yl)-1-((5-(isopropylsulfonyl)thiophen-2-yl)sulfonyl)-1H-indazole]
9 | ≤ 1000 | CC(C)S(=O)(=O)c1ccc(S(=O)(=O)n2nc(N3CCN(c4ncc(Cl)cc4F)CC34CC4)c3c(Cl)cc(F)cc32)s1 [Compound 35, 4-chloro-3-(7-(5-chloro-3-fluoropyridin-2-yl)-4,7-diazaspiro[2.5]octan-4-yl)-6-fluoro-1-((5-(isopropylsulfonyl)thiophen-2-yl)sulfonyl)-1H-indazole]
10 | ≤ 1000 | CC(C)S(=O)(=O)c1ccc(S(=O)(=O)n2nc(N3CCN(c4ncc(Cl)cn4)CC34CC4)c3c(Cl)cc(F)cc32)s1 [Compound 36, 4-chloro-3-(7-(5-chloropyrimidin-2-yl)-4,7-diazaspiro [2.5]octan-4-yl)-6-fluoro-1-((5-(isopropylsulfonyl)thiophen-2-yl)sulfonyl)-1H-indazole]
11 | ≤ 1000 | CC(C)S(=O)(=O)c1ccc(S(=O)(=O)n2nc(N3CCN(c4ncc(F)cc4F)CC34CC4)c3c(Cl)cc(F)cc32)s1 [Compound 37, 4-chloro-3-[7-(3,5-difluoro-2-pyridyl)-4,7-diazaspiro [2.5]octan-4-yl]-6-fluoro-1-[(5-isopropylsulfonyl-2-thienyl)sulfonyl]indazole]
12 | ≤ 1000 | CC(C)S(=O)(=O)c1ccc(S(=O)(=O)n2nc(N3CCN(c4ncc(F)cn4)CC34CC4)c3c(Cl)cc(F)cc32)s1 [Compound 38, 4-chloro-6-fluoro-3-(7-(5-fluoropyrimidin-2-yl)-4,7-diazaspiro [2.5]octan-4-yl)-1-((5-(isopropylsulfonyl)thiophen-2-yl)sulfonyl)-1H-indazole]
13 | ≤ 1000 | CC(C)S(=O)(=O)c1ccc(S(=O)(=O)n2nc(N3CCN(c4ncc(Cl)s4)CC34CC4)c3c(Cl)cc(F)cc32)s1 [Compound 39, 5-chloro-2-(4-(4-chloro-6-fluoro-1-((5-(isopropylsulfonyl)thiophen-2-yl)sulfonyl)-1H-indazol-3-yl)-4,7-diazaspiro [2.5]octan-7-yl) thiazole]
14 | ≤ 1000 | CC(C)S(=O)(=O)c1ccc(S(=O)(=O)n2nc(N3CCN(c4ncc(F)cc4F)CC34CC4)c3c(F)cc(F)cc32)s1 [Compound 40, 3-(7-(3,5-difluoropyridin-2-yl)-4,7-diazaspiro [2.5]octan-4-yl)-4,6-difluoro-1-((5-(isopropylsulfonyl)thiophen-2-yl)sulfonyl)-1H-indazole]
15 | ≤ 1000 | CC(C)S(=O)(=O)c1ccc(S(=O)(=O)n2nc(N3CCN(c4ccc(F)cn4)CC34CC4)c3c(Cl)cc(F)cc32)s1 [Compound 41, 4-chloro-6-fluoro-3-[7-(5-fluoro-2-pyridyl)-4,7-diazaspiro [2.5]octan-4-yl]-1-[(5-isopropylsulfonyl-2-thienyl)sulfonyl]indazole]
16 | ≤ 1000 | CC(C)S(=O)(=O)c1ccc(S(=O)(=O)n2nc(N3CCN(c4ccc(F)cn4)CC34CC4)c3c(Cl)cccc32)s1 [Compound 42, 4-chloro-3-(7-(5-fluoropyridin-2-yl)-4,7-diazaspiro [2.5]octan-4-yl)-1-((5-(isopropylsulfonyl)thiophen-2-yl)sulfonyl)-1H-indazole]
17 | ≤ 1000 | CC(C)S(=O)(=O)c1ccc(S(=O)(=O)n2nc(N3CCN(c4ncc(Cl)cn4)CC34CC4)c3c(Cl)cccc32)s1 [Compound 43, 4-chloro-3-[7-(5-chloropyrimidin-2-yl)-4,7-diazaspiro [2.5]octan-4-yl]-1-[(5-isopropylsulfonyl-2-thienyl)sulfonyl]indazole]
18 | ≤ 1000 | CC(C)S(=O)(=O)c1ccc(S(=O)(=O)n2nc(N3CCN(c4ncc(F)cn4)CC34CC4)c3c(Cl)cccc32)s1 [Compound 44, 4-chloro-3-[7-(5-fluoropyrimidin-2-yl)-4,7-diazaspiro [2.5]octan-4-yl]-1-[(5-isopropylsulfonyl-2-thienyl)sulfonyl]indazole]
19 | ≤ 1000 | CC(C)S(=O)(=O)c1ccc(S(=O)(=O)n2nc(N3CCN(c4ncc(F)cc4F)CC34CC4)c3c(Cl)cccc32)s1 [Compound 45, 4-chloro-3-[7-(3,5-difluoro-2-pyridyl)-4,7-diazaspiro [2.5]octan-4-yl]-1-[(5-isopropylsulfonyl-2-thienyl)sulfonyl]indazole]
20 | ≤ 1000 | CC(C)S(=O)(=O)c1ccc(S(=O)(=O)n2nc(N3CCN(c4ncc(Cl)s4)CC34CC4)c3c(Cl)cccc32)s1 [Compound 46, 5-chloro-2-[4-[4-chloro-1-[(5-isopropylsulfonyl-2-thienyl)sulfonyl]indazol-3-yl]-4,7-diazaspiro [2.5]octan-7-yl]thiazole]
21 | ≤ 1000 | CC(C)S(=O)(=O)c1ccc(S(=O)(=O)n2nc(N3CCN(c4ccc(Cl)cn4)CC34CC4)c3c(Cl)cccc32)s1 [Compound 47, 4-chloro-3-[7-(5-chloro-2-pyridyl)-4,7-diazaspiro[2.5]octan-4-yl]-1-[(5-isopropylsulfonyl-2-thienyl)sulfonyl]indazole]
22 | ≤ 1000 | CC(C)(C)S(=O)(=O)c1ccc(S(=O)(=O)n2nc(N3CCN(c4ccc(F)cn4)CC34CC4)c3c(Cl)cccc32)s1 [Compound 48, 1-[(5-tert-butylsulfonyl-2-thienyl)sulfonyl]-4-chloro-3-[7-(5-fluoro-2-pyridyl)-4,7-diazaspiro [2.5]octan-4-yl]indazole]
23 | ≤ 1000 | CC(C)(C)S(=O)(=O)c1ccc(S(=O)(=O)n2nc(N3CCN(c4ncc(F)cn4)CC34CC4)c3c(Cl)cccc32)s1 [Compound 49, 1-((5-(tert-butylsulfonyl)thiophen-2-yl)sulfonyl)-4-chloro-3-(7-(5-fluoropyrimidin-2-yl)-4,7-diazaspiro [2.5]octan-4-yl)-1H-indazole]
24 | ≤ 1000 | CC(C)S(=O)(=O)c1ccc(S(=O)(=O)n2nc(N3CCN(c4ncc(F)cn4)CC3C3CC3)c3c(Cl)cccc32)cc1 (stereo not shown) [Compound 50, 4-chloro-3-(2-cyclopropyl-4-(5-fluoropyrimidin-2-yl)piperazin-1-yl)-1-((4-(isopropylsulfonyl)phenyl)sulfonyl)-1H-indazole]
25 | ≤ 1000 | CC(C)S(=O)(=O)c1ccc(S(=O)(=O)n2nc(N3CCN(c4ncc(F)cn4)CC3C3CC3)c3c(Cl)cc(F)cc32)cc1 (stereo not shown) [Compound 51, 4-chloro-3-(2-cyclopropyl-4-(5-fluoropyrimidin-2-yl)piperazin-1-yl)-6-fluoro-1-((4-(isopropylsulfonyl)phenyl)sulfonyl)-1H-indazole]
26 | ≤ 1000 | O=S(=O)(c1ccc(S(=O)(=O)C(F)(F)F)cc1)n1nc(N2CCN(c3ncc(F)cn3)CC23CC3)c2c(Cl)cccc21 [Compound 52, 4-chloro-3-(7-(5-fluoropyrimidin-2-yl)-4,7-diazaspiro [2.5]octan-4-yl)-1-((4-((trifluoromethyl)sulfonyl)phenyl)sulfonyl)-1H-indazole]
27 | ≤ 1000 | CC(C)S(=O)(=O)c1ccc(S(=O)(=O)n2nc(N3CCC(F)(F)CC34CC4)c3c(Cl)cccc32)cc1 [Compound 53, 4-chloro-3-(7,7-difluoro-4-azaspiro [2.5]octan-4-yl)-1-(4-isopropylsulfonylphenyl) sulfonyl-indazole]
28 | ≤ 1000 | CC(C)S(=O)(=O)c1ccc(S(=O)(=O)n2nc(N3CCC(Cl)(Cl)CC34CC4)c3c(Cl)cccc32)cc1 [Compound 54, 4-chloro-3-(7,7-dichloro-4-azaspiro [2.5]octan-4-yl)-1-(4-isopropylsulfonylphenyl) sulfonyl-indazole]
